Assays:
[1] = target: T1, hM4 (Homo sapiens, UniProt P08173); type: cell-based; settings: for hM4 pEC50 (±SEM): hM4/Gqi5-CHO cells, EC20 fixed concentration of acetylcholine, mean of n=3
T1 sequence (P08173 1-479): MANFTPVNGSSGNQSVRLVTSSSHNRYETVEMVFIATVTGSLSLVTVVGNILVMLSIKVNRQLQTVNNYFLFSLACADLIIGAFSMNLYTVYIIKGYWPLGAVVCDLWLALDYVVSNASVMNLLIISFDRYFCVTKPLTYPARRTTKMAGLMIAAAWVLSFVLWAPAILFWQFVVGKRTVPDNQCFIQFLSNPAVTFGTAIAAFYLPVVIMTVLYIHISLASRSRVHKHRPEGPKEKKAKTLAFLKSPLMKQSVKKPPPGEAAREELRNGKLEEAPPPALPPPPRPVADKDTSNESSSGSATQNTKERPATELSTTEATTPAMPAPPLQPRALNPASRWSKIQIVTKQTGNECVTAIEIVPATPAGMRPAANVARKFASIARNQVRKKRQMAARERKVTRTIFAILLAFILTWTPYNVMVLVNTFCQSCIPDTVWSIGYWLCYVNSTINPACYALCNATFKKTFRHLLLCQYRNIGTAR

[2] = Predicted hepatic clearance from human hepatic microsomal CLint; type: in vitro ADME; settings: based on hepatic microsomal CLint
[3] = Predicted hepatic clearance from rat hepatic microsomal CLint; type: in vitro ADME; settings: based on hepatic microsomal CLint
[4] = target: human P-gp (Homo sapiens, UniProt P08183); test: P-gp efflux in MDCK-MDR1 cells; type: in vitro ADME
Sequence of human P-gp (P08183 whole entry): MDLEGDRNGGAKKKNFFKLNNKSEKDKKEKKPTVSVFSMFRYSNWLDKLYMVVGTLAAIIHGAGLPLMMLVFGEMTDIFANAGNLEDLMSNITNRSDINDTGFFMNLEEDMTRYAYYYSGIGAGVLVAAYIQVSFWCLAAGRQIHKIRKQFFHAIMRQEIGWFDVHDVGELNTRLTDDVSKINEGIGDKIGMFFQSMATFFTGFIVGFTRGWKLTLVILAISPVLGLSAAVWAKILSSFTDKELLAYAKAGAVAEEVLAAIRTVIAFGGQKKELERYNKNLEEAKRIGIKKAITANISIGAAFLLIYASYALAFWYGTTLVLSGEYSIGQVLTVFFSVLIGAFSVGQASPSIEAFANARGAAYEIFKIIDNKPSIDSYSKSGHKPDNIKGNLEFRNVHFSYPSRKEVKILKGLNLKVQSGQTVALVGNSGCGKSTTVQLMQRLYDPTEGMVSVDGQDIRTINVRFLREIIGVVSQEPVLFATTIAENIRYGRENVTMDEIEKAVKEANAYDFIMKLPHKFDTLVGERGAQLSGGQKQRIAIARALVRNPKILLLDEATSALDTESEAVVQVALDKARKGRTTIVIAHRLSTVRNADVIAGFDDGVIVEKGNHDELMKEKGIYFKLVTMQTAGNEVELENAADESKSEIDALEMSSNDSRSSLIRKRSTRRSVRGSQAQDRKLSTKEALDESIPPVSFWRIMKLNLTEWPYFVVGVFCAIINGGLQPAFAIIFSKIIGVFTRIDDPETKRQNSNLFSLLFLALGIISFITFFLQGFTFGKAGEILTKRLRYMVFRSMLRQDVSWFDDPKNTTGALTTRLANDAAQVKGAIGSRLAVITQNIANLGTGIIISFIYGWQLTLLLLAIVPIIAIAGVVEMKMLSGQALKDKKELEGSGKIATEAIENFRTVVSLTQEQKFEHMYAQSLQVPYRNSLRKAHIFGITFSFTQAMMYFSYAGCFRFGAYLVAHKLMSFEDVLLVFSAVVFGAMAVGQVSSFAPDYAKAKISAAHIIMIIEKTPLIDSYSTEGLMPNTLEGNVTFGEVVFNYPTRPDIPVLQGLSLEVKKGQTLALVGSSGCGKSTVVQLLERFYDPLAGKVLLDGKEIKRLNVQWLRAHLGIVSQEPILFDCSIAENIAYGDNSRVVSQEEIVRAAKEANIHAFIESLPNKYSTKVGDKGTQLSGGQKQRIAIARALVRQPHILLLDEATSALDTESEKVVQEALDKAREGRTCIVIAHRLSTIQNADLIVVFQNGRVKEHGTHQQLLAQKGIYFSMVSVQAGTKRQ

[5] = Rat in vivo PK; settings: rat in vivo PK studies
[6] = Ames test
[7] = target: T2, human M4 (Homo sapiens, UniProt P08173); test: ACh CRC fold-shift experiments; type: cell-based; settings: operational model
T2 sequence (P08173 1-479): T1 sequence (P08173 1-479)

[8] = target: cynomolgus monkey M4 (Macaca fascicularis, UniProt G7PQB4); test: ACh CRC fold-shift experiments; type: cell-based; settings: operational model
[9] = Dog in vivo PK; settings: female, mongrel, plasma, iv
[10] = tested on: CYP450; test: CYP450 time-dependent inhibition; type: in vitro ADME
[11] = Predicted human PK; settings: based on moderate and small predicted CL and Vss

With Cc1nnc2sc(C(=O)NC3CN(C(=O)OCc4ccccc4)C3)c(N)c2c1C [Compound 6a] the “hM4 pEC50 (±SEM)” value [1] was 7.62±0.19.

With Cc1cccc(OC(=O)N2CC(NC(=O)c3sc4nnc(C)c(C)c4c3N)C2)c1 [Compound 6c] the “hM4 pEC50 (±SEM)” value [1] was 7.23±0.17.

With Cc1nnc2sc(C(=O)NC3CN(C(=O)c4ccccc4)C3)c(N)c2c1C [Compound 6f] the “hM4 pEC50 (±SEM)” value [1] was 6.22±0.25.

In the case of Cc1nnc2sc(C(=O)NC3CN(c4nc5ccccc5o4)C3)c(N)c2c1C [Compound 16b], the “hM4 pEC50 (±SEM)” value [1] is reported as 6.45±0.19.

For Cc1nnc2sc(C(=O)NC3CN(c4nc5cccnc5s4)C3)c(N)c2c1C [Compound 16c], the “predicted CLhep” value [2] was 12 mL/min/kg, the “predicted CLhep” value [3] was 41 mL/min/kg and the “hM4 pEC50 (±SEM)” value [1] was 7.04±0.16.

With Cc1nnc2sc(C(=O)NC3CN(c4ccccn4)C3)c(N)c2c1C [Compound 16d] the “hM4 pEC50 (±SEM)” value [1] was 6.99±0.18.

With Cc1nnc2sc(C(=O)NC3CN(c4cccnc4)C3)c(N)c2c1C [Compound 16e] the “human P-gp efflux substrate” value [4] was “substrates for human P-gp efflux”.

In the case of Cc1nnc2sc(C(=O)NC3CN(c4ccncn4)C3)c(N)c2c1C [Compound 16h], the “hM4 pEC50 (±SEM)” value [1] is reported as 7.48±0.17.

For Cc1nnc2sc(C(=O)NC3CN(c4cccnc4F)C3)c(N)c2c1C [Compound 16i], the “human P-gp efflux substrate” value [4] was “substrates for human P-gp efflux” and the “hM4 pEC50 (±SEM)” value [1] was 7.74±0.22.

In the case of Cc1nnc2sc(C(=O)NC3CN(c4ccc(C(F)(F)F)nc4)C3)c(N)c2c1C [Compound 16j], the “predicted CLhep” value [2] is reported as 5.6 mL/min/kg and the “predicted CLhep” value [3] is reported as 18 mL/min/kg.

In the case of Cc1nnc2sc(C(=O)NC3CN(c4ccnc(Cl)c4)C3)c(N)c2c1C [Compound 16n], the “hM4 pEC50 (±SEM)” value [1] is reported as 6.80±0.19.

With COc1cc(N2CC(NC(=O)c3sc4nnc(C)c(C)c4c3N)C2)ccn1 [Compound 16o] the “rat in vivo PK finding on metabolism” value [5] was “evidence for extrahepatic non-CYP450 metabolism”.

In the case of Cc1nnc2sc(C(=O)NC3CN(c4ccncc4Cl)C3)c(N)c2c1C [Compound 16p], the “rat in vivo PK finding on metabolism” value [5] is reported as “evidence for extrahepatic non-CYP450 metabolism”.

With Cc1nnc2sc(C(=O)NC3CN(c4cc(F)nc(F)c4)C3)c(N)c2c1C [Compound 16q] the “human P-gp efflux substrate” value [4] was “substrates for human P-gp efflux”.

In the case of Cc1nnc2sc(C(=O)NC3CN(c4ccc(S(=O)(=O)C(F)(F)F)cc4)C3)c(N)c2c1C [Compound 17f], the “weaker hM4 activity compared to that of 17j” value [1] is reported as ~ 10 fold.

With Cc1nnc2sc(C(=O)NC3CN(c4ccc(S(=O)(=O)C(F)F)cc4)C3)c(N)c2c1C [Compound 17g] the “weaker hM4 activity compared to that of 17j” value [1] was ~40 fold and the “hM4 pEC50 (±SEM)” value [1] was 6.63±0.29.

In the case of Cc1nnc2sc(C(=O)NC3CN(c4ccc(F)cc4F)C3)c(N)c2c1C [Compound 17h], the “hM4 pEC50 (±SEM)” value [1] is reported as 7.49±0.12.

With Cc1nnc2sc(C(=O)NC3CN(c4cccc(F)c4F)C3)c(N)c2c1C [Compound 17j] the Ames test result [6] was “no evidence of mutagenesis”, the “human M4 αβ” value [7] was 380 and the “cynomolgus monkey M4 αβ” value [8] was 120. The clearance [9] was 17 mL/min/kg, the “time-dependent CYP450 inhibition” value [10] was “no evidence for time-dependent inhibition” and the “predicted human t1/2” value [11] was 1 to 2 h.
